The source of these data is US9255100B2 (BAYER INTELLECTUAL PROPERTY GMBH, priority 2010, dated 2016).

Data set [1] concerns the target T1, N-terminally GST-tagged human full length recombinant Mps-1 kinase (Homo sapiens, UniProt P33981).
T1 construct: N-terminally GST-tagged human full length recombinant Mps-1 kinase; purchased Invitrogen, Karslruhe, Germany PV4071
T1 sequence (P33981 1-857): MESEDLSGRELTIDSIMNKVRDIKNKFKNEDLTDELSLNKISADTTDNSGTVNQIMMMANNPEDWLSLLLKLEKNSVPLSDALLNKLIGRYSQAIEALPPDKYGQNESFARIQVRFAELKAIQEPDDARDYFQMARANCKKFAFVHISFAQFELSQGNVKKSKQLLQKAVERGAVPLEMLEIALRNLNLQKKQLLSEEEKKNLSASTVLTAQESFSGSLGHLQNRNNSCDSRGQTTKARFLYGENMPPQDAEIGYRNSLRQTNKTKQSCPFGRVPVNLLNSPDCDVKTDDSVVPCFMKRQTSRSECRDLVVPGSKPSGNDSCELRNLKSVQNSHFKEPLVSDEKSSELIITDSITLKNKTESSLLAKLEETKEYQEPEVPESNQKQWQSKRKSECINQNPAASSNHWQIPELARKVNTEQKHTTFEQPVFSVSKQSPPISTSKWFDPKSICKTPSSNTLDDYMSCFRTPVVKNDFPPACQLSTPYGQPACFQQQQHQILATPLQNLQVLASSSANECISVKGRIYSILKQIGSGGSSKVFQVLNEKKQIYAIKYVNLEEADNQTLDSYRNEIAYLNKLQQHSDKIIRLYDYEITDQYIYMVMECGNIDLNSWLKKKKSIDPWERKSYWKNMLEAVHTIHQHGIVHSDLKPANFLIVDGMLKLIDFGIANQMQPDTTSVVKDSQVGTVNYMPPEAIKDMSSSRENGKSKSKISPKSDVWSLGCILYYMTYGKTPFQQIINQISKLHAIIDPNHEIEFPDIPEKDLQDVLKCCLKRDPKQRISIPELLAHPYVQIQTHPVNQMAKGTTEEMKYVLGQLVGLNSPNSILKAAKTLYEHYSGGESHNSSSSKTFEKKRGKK
The data set can be described thus: Mps-1 kinase assay (TR-FRET). Conditions: Mps1 IC50 [nM], 10 μM ATP, 1 μM peptide substrate, 60 min at 22° C. The class given is biochemical. Summed up: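 GST-Mps-1 (full length, N-term tag) ~1 nM final, linear-range adjusted per lot; biotinylated peptide substrate. Detection: Eu-anti-pSer/Thr donor → SA-XLent acceptor TR-FRET, 1 h, 22° C. Inhibition of kinase activity.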

The subject of data set [2] is Hepatocytes from Han Wistar rats. The data set can be described thus: In vitro metabolic stability in rat hepatocytes (calculation of hepatic in vivo blood clearance and Fmax). The class given is in vitro ADME. To be noted: for Fmax [%]: maximal oral bioavailability calculated from half-life in rat hepatocytes, 1 μM test compound. As for the experimental part: Investigation of In Vitro Metabolic Stability in Rat Hepatocytes (Including Calculation of Hepatic In Vivo Blood Clearance (CL))
Hepatocytes from Han Wistar rats were isolated via a 2-step perfusion method. After perfusion, the liver was carefully removed from the rat: the liver capsule was opened and the hepatocytes were gently shaken out into a Petri dish with ice-cold WME. The resulting cell suspension was filtered through sterile gaze in 50 ml falcon tubes and centrifuged at 50×g for 3 min at room temperature. The cell pellet was resuspended in 30 ml WME and centrifuged through a Percoll® gradient for 2 times at 100×g. The hepatocytes were washed again with Williams' medium E (WME) and resuspended in medium containing 5% FCS. Cell viability was determined by trypan blue exclusion.
For the metabolic stability assay liver cells were distributed in WME containing 5% FCS to glass vials at a density of 1.0×10^6 vital cells/ml. The test compound was added to a final concentration of 1 μM. During incubation, the hepatocyte suspensions were continuously shaken and aliquots were taken at 2, 8, 16, 30, 45 and 90 min, to which equal volumes of cold methanol were immediately added. Samples were frozen at −20° C. over night, after subsequently centrifuged for 15 minutes at 3000 rpm and the supernatant was analyzed with an Agilent 1200 HPLC-system with LCMS/MS detection.
The half-life of a test compound was determined from the concentration-time plot. From the half-life the intrinsic clearances were calculated. Together with the additional parameters liver blood flow, amount of liver cells in vivo and in vitro. The hepatic in vivo blood clearance (CL) and the maximal oral bioavailability (Fmax) was calculated. The following parameter values were used: Liver blood flow—4.2 L/h/kg rat; specific liver weight—32 g/kg rat body weight; liver cells in vivo—1.1×10^8 cells/g liver, liver cells in vitro—0.5×10^6/ml.

For the compound `Cc1cc(-c2cnc3c(NCCC(F)(F)F)cc(Oc4cccc(F)c4)nn23)ccc1C(=O)NC1CC1` [Example 80, N-cyclopropyl-4-{6-(3-fluorophenoxy)-8-[(3,3,3-trifluoropropyl)amino]imidazo[1,2-b]pyridazin-3-yl}-2-methylbenzamide], the IC50 in data set [1] worked out at 0.2 nM. The “Fmax [%]” value in data set [2] is listed as 56%. In data set [2] (relative increase of Fmax (rat hepatocytes) against the comparison compound of the same table), the “increase of metabolic stability” value is recorded as 81%. As to `Cc1cc(-c2cnc3c(NCC4CCOCC4)cc(Oc4cccc(F)c4)nn23)ccc1C(=O)NC1CC1` [Example 323, N-cyclopropyl-4-{6-(3-fluorophenoxy)-8-[(tetra-hydro-2H-pyran-4-yl-methyl)amino]imidazo[1,2-b]pyridazin-3-yl}-2-methylbenzamide], in data set [1], the IC50 came out at 0.2 nM. In data set [2], the “Fmax [%]” value was 31%. In the same order, the values of `Cc1ccc(F)cc1Oc1cc(NCCC(F)(F)F)c2ncc(-c3ccc(C(=O)NC4CC4)c(C)c3)n2n1` [Example 390, N-cyclopropyl-4-{6-(5-fluoro-2-methylphenoxy)-8-[(3,3,3-trifluoropropyl)amino]imidazo[1,2-b]pyridazin-3-yl}-2-methylbenzamide] are 0.1 nM and 55%. On the same counts, the results for `Cc1ccc(F)cc1Oc1cc(NCC(C)(C)O)c2ncc(-c3ccc(C(=O)NC4CC4)c(C)c3)n2n1` [Example 391, N-cyclopropyl-4-{6-(5-fluoro-2-methylphenoxy)-8-[(2-hydroxy-2-methylpropyl)amino]imidazo[1,2-b]pyridazin-3-yl}-2-methylbenzamide] are 0.1 nM and 47%. As to `COc1ccc(Oc2cc(NCC3CCOCC3)c3ncc(-c4ccc(C(=O)NC5CC5)cc4)n3n2)c(F)c1` [Example 444, N-cyclopropyl-4-{6-(2-fluoro-4-methoxyphenoxy)-8-[(tetrahydro-2H-pyran-4-ylmethyl)amino]imidazo[1,2-b]pyridazin-3-yl}benzamide], in data set [2], the “Fmax [%]” value is 22%. `COc1ccc(Oc2cc(NCC3CCOCC3)c3ncc(-c4ccc(C(=O)NC5CC5)c(C)c4)n3n2)c(F)c1` [Example 445, N-cyclopropyl-4-{6-(2-fluoro-4-methoxyphenoxy)-8-[(tetrahydro-2H-pyran-4-ylmethyl)amino]imidazo[1,2-b]pyridazin-3-yl}-2-methylbenzamide]: the IC50 in data set [1] came out at 0.2 nM. The “Fmax [%]” value in data set [2] was 61%.

On to `Cc1cc(-c2cnc3c(NCCC(F)(F)F)cc(Oc4cccc(F)c4)nn23)ccc1C(=O)NC1(C)CC1` [Example 461, 4-{6-(3-fluorophenoxy)-8-[(3,3,3-trifluoropropyl)amino]imidazo[1,2-b]pyridazin-3-yl}-2-methyl-N-(1-methylcyclopropyl)benzamide], for which the IC50 in data set [1] is 0.2 nM. For the same compound, in data set [2], the “Fmax [%]” value is on record as 75%. For the compound `O=C(NC1CC1)c1ccc(-c2cnc3c(NCCC(F)(F)F)cc(Oc4cccc(F)c4)nn23)cc1` [Example 463, N-cyclopropyl-4-{6-(3-fluorophenoxy)-8-[(3,3,3-trifluoropropyl)amino]imidazo[1,2-b]pyridazin-3-yl}benzamide], the “Fmax [%]” value in data set [2] is on record as 7%. Regarding `COCCNc1cc(Oc2cccc(F)c2)nn2c(-c3ccc(C(=O)NC4CC4)c(C)c3)cnc12` [Example 492, N-cyclopropyl-4-{6-(3-fluoro-phenoxy)-8-[(2-methoxyethyl)amino]imidazo[1,2-b]pyridazin-3-yl}-2-methylbenzamide], the IC50 in data set [1] is 0.1 nM. Besides, the “Fmax [%]” value in data set [2] was 42%. Turning to `Cc1cc(-c2cnc3c(NCCN4CCOCC4)cc(Oc4cccc(F)c4)nn23)ccc1C(=O)NC1CC1` [Example 500, N-cyclopropyl-4-[6-(3-fluoro-phenoxy)-8-{[2-(morpholin-4-yl)ethyl]amino}imidazo[1,2-b]pyridazin-3-yl]-2-methylbenzamide], the IC50 in data set [1] worked out at 0.1 nM. Besides, the “Fmax [%]” value in data set [2] was 40%. On the same counts, the results for `CNc1cc(Oc2cccc(F)c2)nn2c(-c3ccc(C(=O)NC4CC4)c(C)c3)cnc12` [Example 510, N-cyclopropyl-4-[6-(3-fluoro-phenoxy)-8-(methylamino)imidazo[1,2-b]pyridazin-3-yl]-2-methylbenzamide] are 0.1 nM and 39%. As for `CCNC(=O)c1ccc(-c2cnc3c(NCCC(F)(F)F)cc(Oc4ccccc4C)nn23)cc1C` [Example 601, N-ethyl-2-methyl-4-{6-(2-methylphenoxy)-8-[(3,3,3-trifluoropropyl)a-mino]imidazo[1,2-b]pyridazin-3-yl}benzamide], in data set [1], the IC50 was under 1 nM. Same read-out and setting: as for `CCNC(=O)c1ccc(-c2cnc3c(NCCC(F)(F)F)cc(Oc4ccc(OC)cc4F)nn23)cc1C` [Example 602, N-ethyl-4-{6-(2-fluoro-4-methoxyphenoxy)-8-[(3,3,3-trifluoropropyl)a-mino]imidazo[1,2-b]pyridazin-3-yl}-2-methylbenzamide], the figure is under 1 nM.

With `CCNC(=O)c1ccc(-c2cnc3c(NCCC(F)(F)F)cc(Oc4cc(F)ccc4C)nn23)cc1C` [Example 603, N-ethyl-4-{6-(5-fluoro-2-methylphenoxy)-8-[(3,3,3-trifluoropropyl)a-mino]imidazo[1,2-b]pyridazin-3-yl}-2-methylbenzamide], the IC50 in data set [1] is under 1 nM. With `CCNC(=O)c1ccc(-c2cnc3c(NCCC(F)(F)F)cc(Oc4ccc(OC)c(F)c4)nn23)cc1C` [Example 604, N-ethyl-4-{6-(3-fluoro-4-methoxyphenoxy)-8-[(3,3,3-trifluoropropyl)a-mino]imidazo[1,2-b]pyridazin-3-yl}-2-methylbenzamide], the IC50 in data set [1] is under 1 nM. On to `CCNC(=O)c1ccc(-c2cnc3c(NCC(F)F)cc(Oc4ccc(OC)cc4F)nn23)cc1C` [Example 605, 4-{8-[(2,2-difluoroethyl)amino]-6-(2-fluoro-4-methoxyphen-oxy)imidazo[1,2-b]pyridazin-3-yl}-N-ethyl-2-methylbenzamide], for which the IC50 in data set [1] is 1.2 nM. Still for that read-out and setting: the same measure for `CCNC(=O)c1ccc(-c2cnc3c(NCCOC)cc(Oc4ccc(F)c(F)c4)nn23)cc1C` [Example 607, 4-{6-(3,4-difluorophenoxy)-8-[(2-methoxyethyl)a-mino]imidazo[1,2-b]pyridazin-3-yl}-N-ethyl-2-methylbenzamide]: 3.7 nM; for `CCNC(=O)c1ccc(-c2cnc3c(NCCOC)cc(Oc4ccc(OC)cc4F)nn23)cc1C` [Example 608, N-ethyl-4-{6-(2-fluoro-4-methoxyphenoxy)-8-[(2-methoxyethyl)a-mino]imidazo[1,2-b]pyridazin-3-yl}-2-methylbenzamide]: 3.9 nM; for `CCNC(=O)c1ccc(-c2cnc3c(NCCOC)cc(Oc4cc(F)ccc4C)nn23)cc1C` [Example 609, N-ethyl-4-{6-(5-fluoro-2-methylphenoxy)-8-[(2-methoxyethyl)a-mino]imidazo[1,2-b]pyridazin-3-yl}-2-methylbenzamide]: 2.9 nM. Same read-out and setting: as for `CCNC(=O)c1ccc(-c2cnc3c(NCCOC)cc(Oc4ccc(OC)c(F)c4)nn23)cc1C` [Example 610, N-ethyl-4-{6-(3-fluoro-4-methoxyphenoxy)-8-[(2-methoxyethyl)a-mino]imidazo[1,2-b]pyridazin-3-yl}-2-methylbenzamide], the figure is under 1 nM.
